Test results from patent US8143263B2, “Therapeutic agents” (Astrazeneca AB, priority 2008, dated 2012).

Target: T1, recombinant human pancreatic GLK (Homo sapiens, UniProt P35557)
T1 sequence (P35557 1-465): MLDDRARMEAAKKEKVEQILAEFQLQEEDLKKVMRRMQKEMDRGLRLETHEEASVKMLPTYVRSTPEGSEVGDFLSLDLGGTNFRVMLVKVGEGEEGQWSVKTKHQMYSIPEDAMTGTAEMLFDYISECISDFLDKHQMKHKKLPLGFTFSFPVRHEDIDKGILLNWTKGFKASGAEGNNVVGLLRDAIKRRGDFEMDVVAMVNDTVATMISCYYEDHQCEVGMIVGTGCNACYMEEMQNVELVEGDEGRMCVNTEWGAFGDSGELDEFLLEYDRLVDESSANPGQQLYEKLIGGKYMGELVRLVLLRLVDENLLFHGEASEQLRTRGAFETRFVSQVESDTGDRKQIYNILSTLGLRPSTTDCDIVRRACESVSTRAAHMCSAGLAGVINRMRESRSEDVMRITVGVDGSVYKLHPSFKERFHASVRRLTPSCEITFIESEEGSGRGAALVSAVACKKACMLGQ
Assay: biochemical

SMILES | EC50 [nM]
CC(C)OC[C@H](Oc1ncnc2c1cnn2-c1ncccc1Cl)C(=O)Nc1ccc(C(=O)N(C)C)cn1 [Example 178, 6-((2S)-2-(1-(3-chloropyridin-2-yl)-1H-pyrazolo[3,4-d]pyrimidin-4-yloxy)-3-isopropoxypropanamido)-N,N-dimethylnicotinamide] | 4300
COC[C@H](Oc1ncnc2c1cnn2-c1ncccc1Cl)C(=O)Nc1ccc(C)cn1 [Example 89, (2S)-2-(1-(3-chloropyridin-2-yl)-1H-pyrazolo[3,4-d]pyrimidin-4-yloxy)-3-methoxy-N-(5-methylpyridin-2-yl)propanamide] | 1500
COC[C@H](Oc1ncnc2c1cnn2-c1ccccc1C#N)C(=O)Nc1ccc(C)cn1 [Example 97, (2S)-2-(1-(2-cyanophenyl)-1H-pyrazolo[3,4-d]pyrimidin-4-yloxy)-3-methoxy-N-(5-methylpyridin-2-yl)propanamide] | 1200
CC(C)OC[C@H](Oc1ncnc2c1cnn2-c1ccccc1Cl)C(=O)Nc1ccc(F)cn1 [Example 112a, (2S)-2-[1-(2-chlorophenyl)pyrazolo[4,5-e]pyrimidin-4-yl]oxy-N-(5-fluoro-2-pyridyl)-3-isopropoxy-propanamide] | 220
CCOC[C@H](Oc1ncnc2c1cnn2-c1ncccc1Cl)C(=O)Nc1ccc(C#N)cn1 [Example 127c, (2S)-2-[1-(3-chloro-2-pyridyl)pyrazolo[4,5-e]pyrimidin-4-yl]oxy-N-(5-cyano-2-pyridyl)-3-ethoxy-propanamide] | 670
N#Cc1cccc(Cl)c1-n1ncc2c(O[C@@H](CN3CC(O)C3)C(=O)Nc3ccc(Cl)cn3)ncnc21 [Example 240, (2S)-2-[1-(2-chloro-6-cyano-phenyl)pyrazolo[3,4-d]pyrimidin-4-yl]oxy-N-(5-chloro-2-pyridyl)-3-(3-hydroxyazetidin-1-yl)propanamide] | 450
Cc1ccc(C)c(-n2ncc3c(O[C@@H](COCCO)C(=O)Nc4ccc(Cl)cn4)ncnc32)c1 [Example 179, (2S)—N-(5-chloropyridin-2-yl)-2-(1-(2,5-dimethylphenyl)-1H-pyrazolo[3,4-d]pyrimidin-4-yloxy)-3-(2-hydroxyethoxy)propanamide] | 620
Cc1cnc(NC(=O)[C@H](COC2CCC2)Oc2ncnc3c2cnn3-c2ncc(Cl)cc2C(F)(F)F)cn1 [Example 138, (2S)-2-[1-[5-chloro-3-(trifluoromethyl)pyridin-2-yl]pyrazolo[4,5-e]pyrimidin-4-yl]oxy-3-cyclobutyloxy-N-(5-methylpyrazin-2-yl)propanamide] | 810
Cc1ccc(NC(=O)[C@H](COCCO)Oc2ncnc3c2cnn3Cc2ccccc2)nc1 [Example 181, (S)-2-(1-benzyl-1H-pyrazolo[3,4-d]pyrimidin-4-yloxy)-3-(2-hydroxyethoxy)-N-(5-methylpyridin-2-yl)propanamide] | 3300
O=C(Nc1ccccn1)[C@H](CCO)Oc1ncnc2c1cnn2-c1ncccc1Cl [Example 143c, (2S)-2-[1-(3-chloro-2-pyridyl)pyrazolo[4,5-e]pyrimidin-4-yl]oxy-4-hydroxy-N-(2-pyridyl)butanamide] | 610
CC(C)OC[C@H](Oc1ncnc2c1cnn2-c1ccccc1Cl)C(=O)Nc1ccccn1 [Example 118a, (2S)-2-[1-(2-chlorophenyl)pyrazolo[4,5-e]pyrimidin-4-yl]oxy-3-isopropoxy-N-(2-pyridyl)propanamide] | 120
Cc1ccc(NC(=O)[C@H](COCCO)Oc2ncnc3c2cnn3-c2cccc(Cl)c2C)nc1 [Example 167, (2S)-2-[1-(3-chloro-2-methylphenyl)pyrazolo[4,5-e]pyrimidin-4-yl]oxy-3-(2-hydroxyethoxy)-N-(5-methylpyridin-2-yl)propanamide] | 1100
COC[C@H](Oc1ncnc2c1cnn2-c1ccccc1OC)C(=O)Nc1ccc(C)cn1 [Example 6, (S)-3-methoxy-2-{[1-(2-methoxyphenyl)-1H-pyrazolo[3,4-d]pyrimidin-4-yl]oxy}-N-(5-methylpyridin-2-yl)propanamide] | 680
COCC[C@@H](Oc1ncnc2c1cnn2-c1cccc(OC)c1)C(=O)Nc1ccc(C)cn1 [Example 14, (R)-4-methoxy-2-{[1-(3-methoxyphenyl)-1H-pyrazolo[3,4-d]pyrimidin-4-yl]oxy}-N-(5-methylpyridin-2-yl)butanamide] | ≥ 100000
CCC(C)C(Sc1ncnc2c1cnn2-c1ccccc1Cl)C(=O)Nc1ccon1 (stereo not drawn) [Example 55, 2-{[1-(2-chlorophenyl)-1H-pyrazolo[3,4-d]pyrimidin-4-yl]thio}-N-isoxazol-3-yl-3-methylpentanamide] | > 20000
Cc1ccc(NC(=O)[C@H](CN2CC(O)C2)Oc2ncnc3c2cnn3-c2ccccc2Cl)nc1 [Example 205, (2S)-2-(1-(2-chlorophenyl)-1H-pyrazolo[3,4-d]pyrimidin-4-yloxy)-3-(3-hydroxyazetidin-1-yl)-N-(5-methylpyridin-2-yl)propanamide] | 240
Cc1c(C#N)cccc1-n1ncc2c(O[C@@H](COCCO)C(=O)Nc3ccc(C#N)cn3)ncnc21 [Example 207, (2S)-2-(1-(3-cyano-2-methylphenyl)-1H-pyrazolo[3,4-d]pyrimidin-4-yloxy)-N-(5-cyanopyridin-2-yl)-3-(2-hydroxyethoxy)propanamide] | 5000
CCCCC(Oc1ncnc2c1cnn2-c1ccccc1Cl)C(=O)Nc1cnc(C)cn1 (stereo not drawn) [Example 40, 2-{[1-(2-chlorophenyl)-1H-pyrazolo[3,4-d]pyrimidin-4-yl]oxy}-N-(5-methylpyrazin-2-yl)hexanamide] | 140
O=C(Nc1ccc(F)cn1)[C@H](COCCO)Oc1ncnc2c1cnn2-c1ccccc1Cl [Example 248, (2S)-2-[1-(2-chlorophenyl)pyrazolo[3,4-d]pyrimidin-4-yl]oxy-N-(5-fluoro-2-pyridyl)-3-(2-hydroxyethoxy)propanamide] | 640
CC(C)OCC(Oc1ncnc2c1cnn2-c1ccccc1Cl)C(=O)Nc1ccc(Cl)cn1 (stereo not drawn) [Example 115, 2-[1-(2-chlorophenyl)pyrazolo[4,5-e]pyrimidin-4-yl]oxy-N-(5-chloro-2-pyridyl)-3-isopropoxy-propanamide] | 110
Cc1ccc(C#N)cc1-n1ncc2c(O[C@@H](COCCO)C(=O)Nc3ccc(Cl)cn3)ncnc21 [Example 185, (2S)—N-(5-chloropyridin-2-yl)-2-(1-(5-cyano-2-methylphenyl)-1H-pyrazolo[3,4-d]pyrimidin-4-yloxy)-3-(2-hydroxyethoxy)propanamide] | 3700
Cc1ccc(NC(=O)[C@H](COC(C)C)Oc2ncnc3c2cnn3-c2cnccc2C)nc1 [Example 148, (2S)-3-isopropoxy-N-(5-methyl-2-pyridyl)-2-[1-(4-methyl-3-pyridyl)pyrazolo[4,5-e]pyrimidin-4-yl]oxy-propanamide] | 930
CC(C)OCC(Oc1ncnc2c1cnn2-c1ccccc1Cl)C(=O)Nc1ccon1 (stereo not drawn) [Example 119, 2-[1-(2-chlorophenyl)pyrazolo[4,5-e]pyrimidin-4-yl]oxy-3-isopropoxy-N-isoxazol-3-yl-propanamide] | 1200
COCC(Sc1ncnc2c1cnn2-c1ccccc1Cl)C(=O)Nc1ccc(C)cn1 (stereo not drawn) [Example 62, 2-{[1-(2-Chlorophenyl)-1H-pyrazolo[3,4-d]pyrimidin-4-yl]thio}-3-methoxy-N-(5-methylpyridin-2-yl)propanamide] | 12000
